Data from the supplement of paper PMC10307832.

Legend:
Test in all cases: relative viability (nuclei count vs DMSO), 5 days (fraction); higher = more cells survive
[1] = compound: CC1CC(=O)N(C2=CN=C(N=C2N1C3CCCC3)NC4=C(C=C(C=C4)C(=O)NC5CCN(CC5)C)OC)C [NPK76-II-72-1] + Cc1cc(Nc2cc(N3CCN(C)CC3)nc(Sc3ccc(NC(=O)C4CC4)cc3)n2)n[nH]1 [Tozasertib] (partner 0.1 µM)
Summary of the method: (§1)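 Relative viability was taken as the ratio of nuclei in treated wells to nuclei in vehicle wells. Lung cancer cell lines in 1536-well plates received compounds by pin tool one day after seeding, either one drug alone or a fixed anchor-drug dose plus five library-drug doses (not always all listed) in √10 steps. Nuclei were counted on 4× images after 5 days of treatment, and values are medians of duplicate plates.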

BI-2536 + Bortezomib = compound: CC[C@@H]1C(=O)N(C)c2cnc(Nc3ccc(C(=O)NC4CCN(C)CC4)cc3OC)nc2N1C1CCCC1 [BI-2536] + CC(C)C[C@H](NC(=O)[C@H](Cc1ccccc1)NC(=O)c1cnccn1)B(O)O [Bortezomib] (partner 0.002 µM)
Summary of the method: as §1

BI-2536 + Foretinib = compound: CC[C@@H]1C(=O)N(C)c2cnc(Nc3ccc(C(=O)NC4CCN(C)CC4)cc3OC)nc2N1C1CCCC1 [BI-2536] + COc1cc2c(Oc3ccc(NC(=O)C4(C(=O)Nc5ccc(F)cc5)CC4)cc3F)ccnc2cc1OCCCN1CCOCC1 [Foretinib] (partner 0.25 µM)
Summary of the method: as §1

BI-2536 + Linsitinib = compound: CC[C@@H]1C(=O)N(C)c2cnc(Nc3ccc(C(=O)NC4CCN(C)CC4)cc3OC)nc2N1C1CCCC1 [BI-2536] + C[C@]1(O)C[C@@H](c2nc(-c3ccc4ccc(-c5ccccc5)nc4c3)c3c(N)nccn32)C1 [Linsitinib] (partner 1 µM)
Summary of the method: as §1

Cell Line	relative viability ([1]; first compound 0.01 µM)	relative viability ([1]; first compound 0.03162 µM)	relative viability ([1]; first compound 0.1 µM)	relative viability ([1]; first compound 0.3162 µM)	relative viability ([1]; first compound 1 µM)	relative viability (BI-2536 + Bortezomib; first compound 0.01 µM)	relative viability (BI-2536 + Bortezomib; first compound 0.03162 µM)	relative viability (BI-2536 + Bortezomib; first compound 0.1 µM)	relative viability (BI-2536 + Bortezomib; first compound 0.3162 µM)	relative viability (BI-2536 + Bortezomib; first compound 1 µM)	relative viability (BI-2536 + Foretinib; first compound 0.01 µM)	relative viability (BI-2536 + Foretinib; first compound 0.03162 µM)	relative viability (BI-2536 + Foretinib; first compound 0.1 µM)	relative viability (BI-2536 + Foretinib; first compound 0.3162 µM)	relative viability (BI-2536 + Foretinib; first compound 1 µM)	relative viability (BI-2536 + Linsitinib; first compound 0.01 µM)	relative viability (BI-2536 + Linsitinib; first compound 0.03162 µM)	relative viability (BI-2536 + Linsitinib; first compound 0.1 µM)	relative viability (BI-2536 + Linsitinib; first compound 0.3162 µM)	relative viability (BI-2536 + Linsitinib; first compound 1 µM)
NCI-H460	0.524	0.529	0.673	0.463	0.597	1.21	0.65	0.265	0.0115	0.0118	1.11	1.06	0.147	0.0166	0.02	0.844	0.755	0.28	0.0093	0.0128
NCI-H2009	0.707	0.766	0.807	0.669	0.841	1.02	0.916	0.413	0.156	0.108	1.18	0.94	0.547	0.265	0.279	1.21	1.18	1.14	0.394	0.294
201T	0.884	0.948	0.984	0.939	0.976	1.11	1.12	1.07	1.09	0.367	1.1	0.896	0.612	0.184	0.212	1.07	0.866	1.07	1	0.345
NCI-H23	0.367	0.386	0.35	0.379	0.378	1.14	0.885	0.182	0.117	0.139	0.954	0.813	0.229	0.153	0.162	0.536	0.542	0.644	0.191	0.138
LOU-NH91	0.688	0.674	0.628	0.576	0.741	0.506	0.496	0.458	0.287	0.334	0.987	0.861	0.857	0.363	0.273	0.968	0.925	1.04	0.691	0.289
NCI-H2085	0.802	0.79	0.812	0.825	0.855	1.05	1.01	0.587	0.371	0.381	1.02	0.686	0.707	0.199	0.276	0.958	0.919	0.831	0.267	0.329
COR-L23	0.195	0.23	0.218	0.182	0.192	1.08	0.901	0.27		0.101	1.04	1.04	0.453	0.128	0.0906	0.961	1.06	0.605	0.104	0.0946
BEN	0.462	0.46	0.551	0.496	0.552	0.61	0.896	0.43	0.223	0.287	0.564	0.818	0.361	0.243	0.248	0.876	0.874	0.83	0.658	0.222
NCI-H322M	0.486	0.509	0.496	0.44	0.534	1.32	1.22	1.34	1.34	0.311	0.98	0.842	0.834	0.389	0.319	0.921	0.835	1.04	0.668	0.339
NCI-H520	0.36	0.437	0.429	0.423	0.487	0.741	0.321		0.194	0.123	0.678	0.632	0.242	0.184	0.218	0.984	0.852	0.792	0.153	0.171
ABC-1	0.185	0.179	0.172	0.21	0.155	0.252	0.29	0.265	0.242	0.213	1.18	0.868	0.711	0.249	0.187	0.816	0.838	0.895	0.292	0.253
NCI-H1666	0.668	0.674	0.525	0.546	0.666	0.681	0.874	0.332	0.251	0.308	1.02	0.981	0.826	0.447	0.421	0.86	0.736	0.762	0.224	0.276
NCI-H1993	0.594	0.633	0.545	0.499	0.627	1.2	1	0.536	0.696	0.646	0.774	0.828	0.694	0.634	0.537	0.709	0.637	0.579	0.528	0.611
NCI-H1975	0.731	0.893	0.673	0.665	0.912	0.318	0.248	0.243	0.144	0.117	0.942	0.85	0.508	0.148	0.114	0.948	0.861	1.03	0.192	0.147
